Measured values reported in patent US8906952B2, “Indole derivative or pharmaceutically acceptable salt thereof, preparation method thereof, and pharmaceutical composition for preventing or treating metabolic diseases containing same as active ingredient” (Korea Research Institute of Bioscience and Biotechnology, priority 2011, dated 2014).
pIC50: −log10 of the molar value. Like-named read-outs stand apart in the source and are kept apart here.

How the values were obtained:
[1] = target: T1, human DGAT2 (Homo sapiens, UniProt Q96PD7); test: DGAT enzyme inhibition test, hDGAT2 enzyme from sf9 insect cells (DGAT2 selectivity); type: biochemical
T1 construct: made in house; host or cells: sf9 insect cells
T1 sequence (Q96PD7 1-388): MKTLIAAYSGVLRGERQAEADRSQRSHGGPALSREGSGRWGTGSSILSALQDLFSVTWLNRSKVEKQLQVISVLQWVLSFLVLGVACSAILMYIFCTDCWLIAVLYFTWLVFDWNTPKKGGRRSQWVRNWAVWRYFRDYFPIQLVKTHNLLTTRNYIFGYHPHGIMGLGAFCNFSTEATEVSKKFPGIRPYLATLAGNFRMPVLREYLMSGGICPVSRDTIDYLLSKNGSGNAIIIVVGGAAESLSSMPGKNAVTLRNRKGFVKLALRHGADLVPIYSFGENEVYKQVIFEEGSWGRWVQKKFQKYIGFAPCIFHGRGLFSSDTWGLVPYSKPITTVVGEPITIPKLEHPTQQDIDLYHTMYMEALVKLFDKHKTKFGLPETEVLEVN
From the text: (§1) To investigate inhibitory effect of the compounds of Examples 1-33 against DGAT enzyme activity, DGAT enzyme inhibition and DGAT2 selectivity were investigated using zymogen including:
1) hDGAT1 and hDGAT2 enzymes, derived from insect cell overexpressing human DGAT1 and DGAT2 (‘sf9’), respectively,
(§2) To be specific, for the purpose of measuring human-derived DGAT enzyme inhibitory activity, using the zymogen, including enzymes derived from insect cell overexpressing human DGAT1 and DGAT2 (‘sf9’), microsomal protein isolated from human duodenal adenocarcinoma (‘Hutu 80’), and microsomal protein isolated from rat, and according to Coleman et al., (Methods Enzymol., 98-103, 1992), and substrate including 1,2-diacylglycerol(Sigma, D0138) and [^14C]palmitoyl-CoA (Amersham, CFA583), the amount of radiation of [^14C]triacylglycerol produced after enzymatic reaction was measured.
(§3) To be more specific, to the reaction solution containing 175 mM Tris-HCl (pH 8.0), 20 μl bovine serum albumin (10 mg/ml), 100 mM magnesium chloride, 30 μM [^14C]palmitoyl CoA (0.02 μCi, Amersham) and 200 μM 1,2-dioleoylglycerol, reagent dissolved in dimethylsulfoxide (10.0 μl) was added. After introducing 100 to 200 μg isolated microsomal protein and allowing the same to react at 25° C. for 10 min, the reaction was stopped by adding 1.5 ml stop solution (2-propanol:heptane:water=80:20:2, v:v:v). To isolate the product of the reaction (i.e., [^14C]triacylglycerol), 1 ml heptane and 0.5 ml distilled water were added and then decocted. After taking 1 ml supernatant, 2 ml alkaline ethanol solution (ethanol:0.5 N sodium hydroxide:water=50:10:40, v:v:v) were added and then decocted. After taking 0.65 ml supernatant from the decoction, the amount of radiation was measured with liquid scintillation counter (LSC). The DGAT inhibitory activity was calculated with Mathematical Expression 1 below:
(§4) T denotes cpm of experimental group in which the enzymatic reaction solution was treated with the sample,
(§5) C denotes cpm of control group in which the enzymatic reaction solution was not treated with the sample, and
(§6) B denotes cpm of control group treated with the sample without zymogen.

[2] = target: T2, DGAT-1 (rat liver) (Rattus norvegicus, UniProt Q9ERM3); test: DGAT enzyme inhibition test, rat liver-derived DGAT enzyme; type: biochemical; conditions: rat liver microsomal protein
T2 construct: microsomal protein isolated from rat; from tissue; host or cells: rat liver microsomes
T2 sequence (Q9ERM3 1-498): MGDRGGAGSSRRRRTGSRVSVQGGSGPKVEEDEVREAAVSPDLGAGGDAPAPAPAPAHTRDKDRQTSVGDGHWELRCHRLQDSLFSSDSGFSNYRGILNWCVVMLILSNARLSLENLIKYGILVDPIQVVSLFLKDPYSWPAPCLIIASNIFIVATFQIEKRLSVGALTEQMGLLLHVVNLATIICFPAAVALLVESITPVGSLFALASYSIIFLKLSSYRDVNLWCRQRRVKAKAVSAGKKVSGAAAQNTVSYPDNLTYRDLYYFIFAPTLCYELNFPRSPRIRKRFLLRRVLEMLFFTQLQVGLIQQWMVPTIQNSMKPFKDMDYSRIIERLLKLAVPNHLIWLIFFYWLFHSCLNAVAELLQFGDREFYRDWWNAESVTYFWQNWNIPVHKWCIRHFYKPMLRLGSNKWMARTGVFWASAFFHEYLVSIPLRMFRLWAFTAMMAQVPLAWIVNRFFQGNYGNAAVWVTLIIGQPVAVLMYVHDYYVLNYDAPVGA
From the text: as §1
3) rat liver-derived DGAT enzyme.
as §2, §3, §4, §5, §6

[3] = 10 μM, enzyme from sf9 cells overexpressing hDGAT2, read-out: hDGAT-2 (sf9) inhibition rate(%)at 10 μM
[4] = concentration of 10 μM, read-out: hDGAT2 inhibition

## CC(C)N(NC(=O)c1ccccc1)C(=O)/C=C/c1cn(C2CC2)c2ccccc12 [Example 29, (E)-N′-(3-(1-cyclopropyl-1H-indol-3-yl)acryloyl)-N′-isopropylbenzohydrazide]
[1]; [3]
  inhibition at 10 µM: < 0%
[1]; [4]
  inhibition at 10 µM: < 11%
[2]
  pIC50: 5.72

## COc1cccc(C(=O)NN(C(=O)/C=C/c2cn(C(=O)OC(C)(C)C)c3ccccc23)C(C)C)c1 [Example 6, (E)-tert-butyl 3-(3-(1-isopropyl-2-(3-methoxybenzoyl)hydrazinyl)-3-oxoprop-1-enyl)-1H-indole-1-carboxylate]
[1]; [3]
  inhibition at 10 µM: 0.3%
[2]
  pIC50: 5.68

## CC(C)N(NC(=O)c1ccccc1)C(=O)/C=C/c1cn(C(=O)CC(C)(C)C)c2ccccc12 [Example 33, (E)-N′-(3-(1-(3,3-dimethylbutanoyl)-1H-indol-3-yl)acryloyl)-N′-isopropylbenzohydrazide]
[1]; [3]
  inhibition at 10 µM: < 0%
[1]; [4]
  inhibition at 10 µM: < 11%
[2]
  pIC50: 5.85

## CC(C)N(NC(=O)c1ccccc1)C(=O)/C=C/c1cn(C(=O)OC(C)(C)C)c2ccccc12 [Example 1, (E)-tert-butyl 3-(3-(2-benzoyl-1-isopropylhydrazinyl)-3-oxoprop-1-enyl)-1H-indole-1-carboxylate]
[1]; [3]
  inhibition at 10 µM: 7.5%
[1]; [4]
  inhibition at 10 µM: < 11%
[2]
  pIC50: 5.96

## COc1ccc(C(=O)NN(C(=O)/C=C/c2cn(C(=O)OC(C)(C)C)c3ccccc23)C(C)C)cc1 [Example 7, (E)-tert-butyl 3-(3-(1-isopropyl-2-(4-methoxybenzoyl)hydrazinyl)-3-oxoprop-1-enyl)-1H-indole-1-carboxylate]
[1]; [3]
  inhibition at 10 µM: < 0%
[2]
  pIC50: 5.06

## CC(C)N(NC(=O)c1ccc(O)cc1)C(=O)/C=C/c1cn(C(=O)OC(C)(C)C)c2ccccc12 [Example 5, (E)-tert-butyl 3-(3-(2-(4-hydroxybenzoyl)-1-isopropylhydrazinyl)-3-oxoprop-1-enyl)-1H-indole-1-carboxylate]
[1]; [3]
  inhibition at 10 µM: < 0%
[1]; [4]
  inhibition at 10 µM: < 11%
[2]
  pIC50: 4.79

## COC(=O)COc1cccc(C(=O)NN(C(=O)/C=C/c2cn(C(=O)OC(C)(C)C)c3ccccc23)C(C)C)c1 [Example 18, (E)-tert-butyl 3-(3-(1-isopropyl-2-(3-(2-methoxy-2-oxoethoxy)benzoyl)hydrazinyl)-3-oxoprop-1-enyl)-1H-indole-1-carboxylate]
[1]; [3]
  inhibition at 10 µM: < 0%
[2]
  pIC50: 4.69

## CC(C)N(NC(=O)c1ccccc1)C(=O)/C=C/c1c[nH]c2ccccc12 [Example 22, (E)-N′-(3-(1H-indol-3-yl)acryloyl)-N′-isopropylbenzohydrazide]
[1]; [3]
  inhibition at 10 µM: < 0%
[2]
  pIC50: 4.48

## CC(C)N(NC(=O)c1ccccc1)C(=O)CCc1cn(Cc2ccccc2)c2ccccc12 [Example 21, N′-(3-(1-benzyl-1H-indol-3-yl)propanoyl)-N′-isopropylbenzohydrazide]
[1]; [3]
  inhibition at 10 µM: 1.3%
[2]
  pIC50: 4.54

## CC(C)N(NC(=O)c1cccc(OCCN2CCOCC2)c1)C(=O)/C=C/c1cn(C(=O)OC(C)(C)C)c2ccccc12 [Example 8, (E)-tert-butyl 3-(3-(1-isopropyl-2-(3-(2-morpholinoethoxy)benzoyl)hydrazinyl)-3-oxoprop-1-enyl)-1H-indole-1-carboxylate]
[1]; [3]
  inhibition at 10 µM: < 0%
[2]
  pIC50: 5.60

## CC(C)N(NC(=O)c1ccccc1)C(=O)/C=C/c1cn(CC2CC2)c2ccccc12 [Example 28, (E)-N′-(3-(1-(cyclopropylmethyl)-1H-indol-3-yl)acryloyl)-N′-isopropylbenzohydrazide]
[1]; [3]
  inhibition at 10 µM: < 0%
[1]; [4]
  inhibition at 10 µM: < 11%
[2]
  pIC50: 5.54

## CC(C)N(NC(=O)c1ccccc1)C(=O)/C=C/c1cn(C(=O)c2ccccc2)c2ccccc12 [Example 32, (E)-N′-(3-(1-benzoyl-1H-indol-3-yl)acryloyl)-N′-isopropylbenzohydrazide]
[1]; [3]
  inhibition at 10 µM: 11%
[1]; [4]
  inhibition at 10 µM: < 11%
[2]
  pIC50: 6.15

## CC(C)N(NC(=O)c1cccc(Br)c1)C(=O)/C=C/c1cn(C(=O)OC(C)(C)C)c2ccccc12 [Example 12, (E)-tert-butyl 3-(3-(2-(3-bromobenzoyl)-1-isopropylhydrazinyl)-3-oxoprop-1-enyl)-1H-indole-1-carboxylate]
[1]; [3]
  inhibition at 10 µM: 3.9%
[1]; [4]
  inhibition at 10 µM: < 11%
[2]
  pIC50: 5.77

## COCCOc1cccc(C(=O)NN(C(=O)/C=C/c2cn(C(=O)OC(C)(C)C)c3ccccc23)C(C)C)c1 [Example 10, (E)-tert-butyl 3-(3-(1-isopropyl-2-(3-(2-methoxyethoxy)benzoyl)hydrazinyl)-3-oxoprop-1-enyl)-1H-indole-1-carboxylate]
[1]; [3]
  inhibition at 10 µM: 8.3%
[1]; [4]
  inhibition at 10 µM: < 11%
[2]
  pIC50: 5.59
